Test results: patent publication US20060183119A1, “Method for determining predisposition to a physiological reaction in a patient” (UNIVERSITE LAVAL, priority 2002, published 2006)
Positions count from the first letter of the chain named.

Key:
Format in all cases: in vitro ADME
Parameters in all cases: key to Function (SN-38G formation versus *1 allele): High: no significant difference in activity compared to *1 allele.; Low: significantly lower SN-38G formation versus *1 allele
UGT1A7*4 = molecular target: T1, UGT1A7*4 (Homo sapiens, UniProt Q9HAW7, W208R); test: SN-38 glucuronidation by microsomes of HEK293 cells expressing UGT1A7*4
T1 construct: expressed in transfected cells
T1 sequence (Q9HAW7 26-530 W208R): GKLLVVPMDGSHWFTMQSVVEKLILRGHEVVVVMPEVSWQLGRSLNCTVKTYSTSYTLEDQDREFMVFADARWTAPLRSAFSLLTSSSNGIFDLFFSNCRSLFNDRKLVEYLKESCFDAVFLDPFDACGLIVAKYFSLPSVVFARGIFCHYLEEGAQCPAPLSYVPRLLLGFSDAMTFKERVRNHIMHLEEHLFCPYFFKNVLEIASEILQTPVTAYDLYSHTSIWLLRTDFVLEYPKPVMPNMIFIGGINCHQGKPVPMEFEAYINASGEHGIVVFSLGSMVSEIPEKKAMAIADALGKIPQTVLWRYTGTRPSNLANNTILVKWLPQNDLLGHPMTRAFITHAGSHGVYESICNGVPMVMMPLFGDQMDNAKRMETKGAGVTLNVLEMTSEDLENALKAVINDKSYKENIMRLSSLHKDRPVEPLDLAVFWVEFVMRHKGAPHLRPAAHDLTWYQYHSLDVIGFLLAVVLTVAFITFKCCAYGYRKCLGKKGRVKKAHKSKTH
Procedure: (§1) Western blot analyses of UGT1A7 and UGT1A9 variants expressed in HEK293 cells were performed on microsomal proteins (10 μg) separated on a 10% SDS-polyacrylamide gel. After transferring the proteins, the membranes were probed with an anti-UGT1A RC-71 polyclonal antibody and with an anti-calnexin antibody. The relative levels of UGT1A9 (a) and UGT1A7 proteins (b) were determined by semi-quantitative densitometric analysis of the Enhanced chemiluminescence (ECL) image. The in vitro SN-38 activity was assessed using microsomal fractions prepared from HEK293 cells expressing the *1 and variant UGT1A9 (c) and UGT1A7 (d) alleles and incubated with 5 μM of SN-38 as described in Materials and Methods.
(§2) For the determination of Vmax and Km.

UGT1A7*1 = molecular target: T2, UGT1A7*1 (Homo sapiens, UniProt Q9HAW7); test: SN-38 glucuronidation by microsomes of HEK293 cells expressing UGT1A7*1
T2 construct: expressed in transfected cells
T2 sequence (Q9HAW7 26-530): T1 sequence (Q9HAW7 26-530 W208R) with R183W
Procedure: as §1, §2

UGT1A7*3 = molecular target: T3, UGT1A7*3 (Homo sapiens, UniProt Q9HAW7, N129K/R131K/W208R); test: SN-38 glucuronidation by microsomes of HEK293 cells expressing UGT1A7*3
T3 construct: expressed in transfected cells
T3 sequence (Q9HAW7 26-530 N129K/R131K/W208R): T1 sequence (Q9HAW7 26-530 W208R) with N104K, R106K
Procedure: as §1, §2

UGT1A7*2 = molecular target: T4, UGT1A7*2 (Homo sapiens, UniProt Q9HAW7, N129K/R131K); test: SN-38 glucuronidation by microsomes of HEK293 cells expressing UGT1A7*2
T4 construct: expressed in transfected cells
T4 sequence (Q9HAW7 26-530 N129K/R131K): T1 sequence (Q9HAW7 26-530 W208R) with N104K, R106K, R183W
Procedure: as §1, §2

CCc1c2c(nc3ccc(O)cc13)-c1cc3c(c(=O)n1C2)COC(=O)[C@]3(O)CC [SN-38, 7-ethyl-10-hydroxycamptothecin]
SN-38 glucuronidating activity of the allele (in words) (UGT1A7*4): low | Function (SN-38G formation versus *1 allele) (UGT1A7*4; in vitro experiments): Low | SN-38 glucuronidating activity of the allele (in words) (UGT1A7*1): highest | Function (SN-38G formation versus *1 allele) (UGT1A7*1; in vitro experiments): High | SN-38 glucuronidating activity of the allele (in words) (UGT1A7*3): low | Function (SN-38G formation versus *1 allele) (UGT1A7*3; in vitro experiments): Low | SN-38 glucuronidating activity of the allele (in words) (UGT1A7*2): highest | Function (SN-38G formation versus *1 allele) (UGT1A7*2; in vitro experiments): High
